We go through 3 compounds from US11718645B2, “Macrocyclic therapeutic agents, methods of manufacture, and methods of treatment” (University of Florida Research Foundation, Incorporated, priority 2014, dated 2023).

Usually IC50 stands for the concentration needed to halve the response being measured. Lower therefore signals inhibition by little substance.

A short description of data set [1]: Plasma stability in mouse serum. It counts as in vitro ADME. As to conditions: up to 24 h, FIG. 2C. The protocol:
In vitro plasma stability of apratoxin A, S4 (BK), S7 (BL), S8 (BM) and S9 (BN) was done by using a modification of a published method [Chen, X.; Gardner, E. R.; Figg, W. D. J. Chromatogr. B Analyt. Technol. Biomed. Life Sci. 2008, 86, 153-158]. Ten microliters of apratoxin A, BK, BL, BM, or BN (25 μg/mL) were added to 100 μL of mouse serum, and the solution was vortex-mixed for 15 s and incubated for 0.25 min to 24 h (11 time points). At the end of each incubation period, 400 μL of ethyl acetate was added to each tube, followed by 200 μL of harmine to quench the reaction and to extract the remaining apratoxin A or S4 (BK), S7 (BL), S8 (BM) and S9 (BN). Samples were further incubated in a thermomixer at 27° C. (750 rpm, 5 min) and later centrifuged for 5 min at 1643 g. The ethyl acetate layer was collected and evaporated to dryness under nitrogen. Samples were reconstituted in 50 μL of acetonitrile. A volume of 10 μL of the reconstituted solution was injected into the HPLC-MS system.
Analysis of apratoxin A, S4 (BK), S7 (BL), S8 (BM) and S9 (BN) was done by using HPLC-MS [column, Onyx Monolithic C18 (3.0×100 mm), Phenomenex (Torrance, Calif.); solvent, water (solvent A) acetonitrile (solvent B); flow rate, 0.5 ml/min; detection by electrospray ionization-MS in positive ion mode (MRM scan)]. A stepwise gradient elution was used starting at 60% B and 40% A, then increasing to 80% B at 5 min and maintained at this condition for 5 min. Parameters were optimized before analysis by using direct syringe infusion. The retention times (tR, min; MRM ion pair) of the analytes and internal standard are as follows: harmine (2.2; 213.1→169.9), apratoxin A (4.7; 841.4→445.2), apratoxin S4 (BK) (4.1; 828.5→432.2), apratoxin S7 (BL) (4.05; 814.5→418.2), apratoxin S8 (BM) (5.2; 842.5→446.2), apratoxin S9 (BN) (4.9; 828.5→432.2). […]
Calibration curves for apratoxin A, S4 (BK), S7 (BL), S8 (BM) and S9 (BN) in the presence of mouse serum, HCT116 cell lysates, and aqueous solutions were generated by least-square linear regression analysis of the analyte peak area and internal standard peak area ratio against the nominal concentration of the standard solutions. A linear regression analysis was performed, and the concentration of remaining apratoxins at each time point was determined through interpolation for plasma, cellular, and aqueous stability experiments. The amount of remaining apratoxins with microsome incubation was determined from the peak area ratio of apratoxins at tx (3 min to 3 h) and t0. All calculations were done by using Analyst 1.4.2 (Applied Biosystems) Quantitate Mode.

The test system of data set [2] is HCT116 cells. The data set can be described thus: Cell viability assay (MTT). The data set is classed as cell-based, human. The conditions noted are these: for IC50: determined after 48 h (n = 4). As for the experimental part:
Human colon adenocarcinoma HCT116 cells were purchased from ATCC (Manassas, Va.) and cultured in Dulbecco's modified Eagle's medium (Invitrogen, Carlsbad, Calif.) supplemented with 10% fetal bovine serum (HyClone, Logan, Utah) at 37° C. humidified air and 5% CO2.
HCT116 cells were seeded at a density of 1×10^4 cells per well in 96-well plates. 24 h later the cells were treated with various concentrations of apratoxins or solvent control. After 48 h of incubation, cell viability was detected using MTT according to the manufacturer's instructions (Promega, Madison, Wis.).

For data set [3], the system named is HCT116 xenograft. The experiment in a line: In vivo efficacy, HCT116 xenograft mouse model. The protocol:
3-5 week old female nude mice (nu/nu) were obtained from Charles River Laboratory (Wilmington, Mass.). 1×10^6 HCT116 cells in a volume of 100 μL of sterile saline were injected subcutaneously on the left rear flank of a nude mouse to establish tumors. Tumor dimensions were measured using calipers every day and tumor volumes were calculated using the formula W^2×L×0.5, where width (W)≤length (L). Tumors with a starting volume bigger than 100 mm^3 were excluded from the analysis. Mice were injected intraperitoneally with the doses of 2 μg/mouse (0.1 mg/kg), 5 μg/mouse (0.25 mg/kg) of apratoxin S8 (BM) or solvent (DMSO) control every day until the tumor size in one dimension reached 15 mm and tumor tissue was harvested on the following day. 50 mg of tumor tissue was sonicated in PhosphoSafe lysis buffer (EMD chemicals, Inc) and used for immunoblot analysis described as the above. All studies were carried out under the protocol approved by the Institutional Animal Care and Use Committee at the University of Florida.

In the case of `CC[C@H](C)[C@H]1C(=O)N2CCC[C@@H]2C(=O)O[C@H](C(C)(C)C)C[C@@H](C)C[C@H](O)[C@H](C)C2=N[C@H](CCC(=O)N[C@@H](Cc3ccc(OC)cc3)C(=O)N(C)[C@@H](C)C(=O)N1C)CS2` [apratoxin S9 (BN), Apratoxin S9], the plasma stability result in data set [1] was “excellent”. Also, in data set [2], the “potency relative to the other apratoxins, cell viability” value is on record as 2-3 fold and it took 0.69 nM to reach half-maximal inhibition (IC50).

With `CC[C@H](C)[C@H]1C(=O)N2CCC[C@@H]2C(=O)O[C@H](C(C)(C)C)C[C@@H](C)C[C@H](O)C(C)(C)C2=N[C@@H](CCC(=O)N[C@@H](Cc3ccc(OC)cc3)C(=O)N(C)[C@@H](C)C(=O)N1C)CS2` [apratoxin S8 (BM), Apratoxin S8], the plasma stability entry in data set [1] is reported as “excellent”. This compound also showed an IC50 in data set [2] of 1.99 nM. For the same compound, the “dose dependence of tumor growth inhibition” value in data set [3] (0.1 and 0.25 mg/kg daily i.p.) is on record as “clear dose-dependent tumor growth inhibition”. Further, the “signs of toxicity (weight loss, abnormal behavior)” value in data set [3] (0.1 and 0.25 mg/kg daily i.p., nude mice) was “did not observe signs of toxicity”. Moreover, in data set [3] (higher dose 0.25 mg/kg daily i.p., about 2 weeks), the “effect on tumor growth” value was “strongly retarded the tumor growth”. For the same compound, the tumor growth inhibition result in data set [3] (lower dose 0.1 mg/kg daily i.p., about 2 weeks) is “about 50%”.

Consider `CC[C@H](C)[C@H]1C(=O)N2CCC[C@@H]2C(=O)O[C@H](C(C)(C)C)C[C@@H](C)C[C@H](O)CC2=N[C@@H](CCC(=O)N[C@@H](Cc3ccc(OC)cc3)C(=O)N(C)[C@@H](C)C(=O)N1C)CS2` [apratoxin S7 (BL), Apratoxin S7], for which the plasma stability result in data set [1] was “excellent”. In data set [2], this compound registered an IC50 of 1.25 nM.
